These molecules were tested against Human Factor D (Homo sapiens (Human), UniProt P00746) (assay: Human Factor D Assay). Conditions: Table 6; Factor D 80 nM, substrate Z-L-Lys-SBz; read-out: IC50.
Human Factor D, sequence (P00746 26-253): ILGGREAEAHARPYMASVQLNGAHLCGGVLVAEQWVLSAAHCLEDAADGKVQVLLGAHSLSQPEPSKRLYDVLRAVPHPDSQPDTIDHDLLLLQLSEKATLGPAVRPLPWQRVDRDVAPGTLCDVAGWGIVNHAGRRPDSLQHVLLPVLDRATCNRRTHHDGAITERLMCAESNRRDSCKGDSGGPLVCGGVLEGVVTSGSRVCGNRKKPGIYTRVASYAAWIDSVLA
Assay type: biochemical
How it was run: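 Thioester substrate Z-L-Lys-SBz (100 μM) with Ellman's reagent DTNB (100 μM) reports activity of 80 nM human serum-derived enzyme, kinetically at 405 nm over 30 min. Compound preincubated 5 min, room temperature, pH 7.5 Tris/1 M NaCl; IC50 by nonlinear fit of rates.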
In the case of `CC(=O)c1nn(CC(=O)N2[C@H](C(=O)Nc3nc(Cl)ccc3CN(C)C)C[C@@]3(C)C[C@@H]23)c2ccc(-c3cnc(C)nc3)cc12` [Compound 135, (1R,3S,5R)-2-(2-(3-Acetyl-5-(2-methylpyrimidin-5-yl)-1H-indazol-1-yl)acetyl)-N-(6-chloro-3-((dimethylamino)methyl)pyridin-2-yl)-5-methyl-2-azabicyclo[3.1.0]hexane-3-carboxamide], the IC50 is reported as < 1000 nM.
For `CC(=O)c1nn(CC(=O)N2[C@H](C(=O)Nc3nc(Br)ccc3CN(C)C)C[C@@]3(C)C[C@@H]23)c2c(C)cc(-c3cnc(C)nc3)cc12` [Compound 136, (1R,3S,5R)-2-(2-(3-Acetyl-7-methyl-5-(2-methylpyrimidin-5-yl)-1H-indazol-1-yl)acetyl)-N-(6-bromo-3-((dimethylamino)methyl)pyridin-2-yl)-5-methyl-2-azabicyclo[3.1.0]hexane-3-carboxamide], the IC50 was < 1000 nM.
With `CC(=O)c1nn(CC(=O)N2[C@H](C(=O)Nc3nc(Cl)ccc3CN(C)C)C[C@@]3(C)C[C@@H]23)c2c(C)cc(-c3cnc(C)nc3)cc12` [Compound 137, (1R,3S,5R)-2-(2-(3-Acetyl-7-methyl-5-(2-methylpyrimidin-5-yl)-1H-indazol-1-yl)acetyl)-N-(6-chloro-3-((dimethylamino)methyl)pyridin-2-yl)-5-methyl-2-azabicyclo[3.1.0]hexane-3-carboxamide] the IC50 was < 1000 nM.
In the case of `CC(=O)c1nn(CC(=O)N2[C@H](C(=O)Nc3nc(Br)ccc3CN3CCOCC3)C[C@@]3(C)C[C@@H]23)c2ccc(-c3cnc(C)nc3)cc12` [Compound 138, (1R,3S,5R)-2-(2-(3-Acetyl-5-(2-methylpyrimidin-5-yl)-1H-indazol-1-yl)acetyl)-N-(6-bromo-3-(morpholinomethyl)pyridin-2-yl)-5-methyl-2-azabicyclo[3.1.0]hexane-3-carboxamide], the IC50 is reported as < 1000 nM.
With `CC(=O)c1nn(CC(=O)N2[C@H](C(=O)Nc3nc(Cl)ccc3CN3CCOCC3)C[C@@]3(C)C[C@@H]23)c2ccc(-c3cnc(C)nc3)cc12` [Compound 139, (1R,3S,5R)-2-(2-(3-Acetyl-5-(2-methylpyrimidin-5-yl)-1H-indazol-1-yl)acetyl)-N-(6-chloro-3-(morpholinomethyl)pyridin-2-yl)-5-methyl-2-azabicyclo[3.1.0]hexane-3-carboxamide] the IC50 was < 1000 nM.
`Cc1ncc(-c2cc(C)c3c(c2)c(C(C)O)nn3CC(=O)N2[C@H](C(=O)Nc3nc(Br)ccc3C)C[C@@]3(C)C[C@@H]23)cn1` (stereo partly shown) [Compound 140] was tested, and the IC50 was < 1000 nM.
`CC(=O)c1nn(CC(=O)N2C[C@H]3C[C@H]3[C@H]2C(=O)Nc2nc(Br)ccc2C)c2cnc(-c3cnc(C)nc3)cc12` [Compound 141, (1R,2S,5S)-3-(2-(3-Acetyl-5-(2-methylpyrimidin-5-yl)-1H-pyrazolo[3,4-c]pyridin-1-yl)acetyl)-N-(6-bromo-3-methylpyridin-2-yl)-3-azabicyclo[3.1.0]hexane-2-carboxamide] was tested, and the IC50 was < 1000 nM.
For `CC(=O)c1nn(CC(=O)N2[C@H](C(=O)Nc3nc(Br)ccc3C)C[C@@]3(CN4CC5(CCCC5)C4)C[C@@H]23)c2ccc(-c3cnc(C)nc3)cc12` [Compound 142, (1R,3S,5R)-5-(2-Azaspiro[3.4]octan-2-ylmethyl)-2-(2-(3-acetyl-5-(2-methylpyrimidin-5-yl)-1H-indazol-1-yl)acetyl)-N-(6-bromo-3-methylpyridin-2-yl)-2-azabicyclo[3.1.0]hexane-3-carboxamide], the IC50 was < 1000 nM.
With `CC(=O)c1nn(CC(=O)N2[C@H](C(=O)Nc3nc(Br)ccc3C)C[C@@]3(CN(C)C)C[C@@H]23)c2c(C#N)cc(-c3cnc(C)nc3)cc12` [Compound 143, (1R,3S,5R)-2-(2-(3-Acetyl-7-cyano-5-(2-methylpyrimidin-5-yl)-1H-indazol-1-yl)acetyl)-N-(6-bromo-3-methylpyridin-2-yl)-5-((dimethylamino)methyl)-2-azabicyclo[3.1.0]hexane-3-carboxamide] the IC50 was < 1000 nM.
`CC(=O)c1nn(CC(=O)N2[C@H]3C[C@@]3(CN(C)C)C[C@H]2C(=O)Nc2nc(Br)ccc2C)c2c(C#N)cc(-c3cnc(C)nc3)cc12` [Compound 144, (1S,3S)-2-(2-(3-acetyl-7-cyano-5-(2-methylpyrimidin-5-yl)-1H-indazol-1-yl)acetyl)-N-(6-bromo-3-methylpyridin-2-yl)-5-((dimethylamino)methyl)-2-azabicyclo[3.1.0]hexane-3-carboxamide] gave an IC50 of 1000 to 10000 nM.
`Cc1ncc(-c2ccc3c(c(C(N)=O)nn3CC(=O)N3[C@H](C(=O)Nc4nc(Br)ccc4C)C[C@@]4(C)C[C@@H]34)c2F)cn1` [Compound 145, 1-(2-((1R,3S,5R)-3-((6-Bromo-3-methylpyridin-2-yl)carbamoyl)-5-methyl-2-azabicyclo[3.1.0]hexan-2-yl)-2-oxoethyl)-4-fluoro-5-(2-methylpyrimidin-5-yl)-1H-indazole-3-carboxamide] was tested, and the IC50 was < 1000 nM.
In the case of `CC(=O)c1nn(CC(=O)N2[C@H](C(=O)Nc3nc(Br)ccc3C)C[C@@]3(C)C[C@@H]23)c2c(C(F)F)cc(-c3cnc(C)nc3)cc12` [Compound 146, (1R,3S,5R)-2-(2-(3-Acetyl-7-(difluoromethyl)-5-(2-methylpyrimidin-5-yl)-1H-indazol-1-yl)acetyl)-N-(6-bromo-3-methylpyridin-2-yl)-5-methyl-2-azabicyclo[3.1.0]hexane-3-carboxamide], the IC50 is reported as < 1000 nM.
With `CC(=O)c1nn(CC(=O)N2[C@H](C(=O)Nc3nc(Br)ccc3C)C[C@@]3(C)C[C@@H]23)c2c(F)cc(-c3cnc(C)nc3)cc12` [Compound 147, (1R,3S,5R)-2-(2-(3-Acetyl-7-fluoro-5-(2-methylpyrimidin-5-yl)-1H-indazol-1-yl)acetyl)-N-(6-bromo-3-methylpyridin-2-yl)-5-methyl-2-azabicyclo[3.1.0]hexane-3-carboxamide] the IC50 was < 1000 nM.
For `CC(=O)c1nn(CC(=O)N2[C@H](C(=O)Nc3nc(Br)ccc3C)C[C@@]3(C)C[C@@H]23)c2ccc(-c3cnc(CC(=O)N(C)C)nc3)cc12` [Compound 148, (1R,3S,5R)-2-(2-(3-Acetyl-5-(2-(2-(dimethylamino)-2-oxoethyl)pyrimidin-5-yl)-1H-indazol-1-yl)acetyl)-N-(6-bromo-3-methylpyridin-2-yl)-5-methyl-2-azabicyclo[3.1.0]hexane-3-carboxamide], the IC50 was < 1000 nM.
In the case of `CC(=O)c1nn(CC(=O)N2[C@H](C(=O)Nc3nc(Br)ccc3C)C[C@@]3(CN4CCC4)C[C@@H]23)c2c(C)cc(-c3cnc(C)nc3)cc12` [Compound 149, (1R,3S,5R)-2-(2-(3-Acetyl-7-methyl-5-(2-methylpyrimidin-5-yl)-1H-indazol-1-yl)acetyl)-5-(azetidin-1-ylmethyl)-N-(6-bromo-3-methylpyridin-2-yl)-2-azabicyclo[3.1.0]hexane-3-carboxamide], the IC50 is reported as < 1000 nM.
In the case of `CC(=O)c1nn(CC(=O)N2[C@H](C(=O)Nc3nc(Br)ccc3C)C[C@@]3(CN4CC(F)(F)C4)C[C@@H]23)c2c(C)cc(-c3cnc(C)nc3)cc12` [Compound 150, (1R,3S,5R)-2-(2-(3-Acetyl-7-methyl-5-(2-methylpyrimidin-5-yl)-1H-indazol-1-yl)acetyl)-N-(6-bromo-3-methylpyridin-2-yl)-5-((3,3-difluoroazetidin-1-yl)methyl)-2-azabicyclo[3.1.0]hexane-3-carboxamide], the IC50 is reported as < 1000 nM.
In the case of `CC(=O)c1nn(CC(=O)N2[C@H](C(=O)Nc3nc(Br)ccc3C)C[C@@]3(CNC4CC4)C[C@@H]23)c2ccc(-c3cnc(C)nc3)cc12` [Compound 151, (1R,3S,5R)-2-(2-(3-Acetyl-5-(2-methylpyrimidin-5-yl)-1H-indazol-1-yl)acetyl)-N-(6-bromo-3-methylpyridin-2-yl)-5-((cyclopropylamino)methyl)-2-azabicyclo[3.1.0]hexane-3-carboxamide], the IC50 is reported as < 1000 nM.
`COCc1ccc(Br)nc1NC(=O)[C@@H]1C[C@@]2(COC)C[C@H]2N1C(=O)Cn1nc(C(C)=O)c2cc(-c3cnc(C)nc3)ccc21` [Compound 152, (1R,3S,5S)-2-(2-(3-Acetyl-5-(2-methylpyrimidin-5-yl)-1H-indazol-1-yl)acetyl)-N-(6-bromo-3-(methoxymethyl)pyridin-2-yl)-5-(methoxymethyl)-2-azabicyclo[3.1.0]hexane-3-carboxamide] was tested, and the IC50 was < 1000 nM.
In the case of `COCc1ccc(Br)nc1NC(=O)[C@@H]1C[C@@]2(CNC(=O)[C@@H](NC(=O)OC)C(C)C)C[C@H]2N1C(=O)Cn1nc(C(C)=O)c2cc(-c3cnc(C)nc3)ccc21` [Compound 153, Methyl ((S)-1-((((1R,3S,5R)-2-(2-(3-acetyl-5-(2-methylpyrimidin-5-yl)-1H-indazol-1-yl)acetyl)-3-((6-bromo-3-(methoxymethyl)pyridin-2-yl)carbamoyl)-2-azabicyclo[3.1.0]hexan-5-yl)methyl)amino)-3-methyl-1-oxobutan-2-yl)carbamate], the IC50 is reported as < 1000 nM.
With `C=CCOC[C@@]12C[C@@H](C(=O)Nc3nc(Br)ccc3C)N(C(=O)Cn3nc(C(C)=O)c4cc(-c5cnc(C)nc5)cc(CC=C)c43)[C@@H]1C2` [Compound 154, (1R,3S,5S)-2-(2-(3-acetyl-7-allyl-5-(2-methylpyrimidin-5-yl)-1H-indazol-1-yl)acetyl)-5-((allyloxy)methyl)-N-(6-bromo-3-methylpyridin-2-yl)-2-azabicyclo[3.1.0]hexane-3-carboxamide] the IC50 was < 1000 nM.
With `CC(=O)c1nn(CC(=O)N2[C@H](C(=O)Nc3nc(Br)ccc3C)C[C@@]3(CN(C)C)C[C@@H]23)c2ccc(-c3cnc(C)nc3)c(F)c12` [Compound 155, (1R,3S,5R)-2-(2-(3-Acetyl-4-fluoro-5-(2-methylpyrimidin-5-yl)-1H-indazol-1-yl)acetyl)-N-(6-bromo-3-methylpyridin-2-yl)-5-((dimethylamino)methyl)-2-azabicyclo[3.1.0]hexane-3-carboxamide] the IC50 was < 1000 nM.
`CC(=O)c1nn(CC(=O)N2[C@H]3C[C@@]3(CN(C)C)C[C@H]2C(=O)Nc2nc(Br)ccc2C)c2ccc(-c3cnc(C)nc3)c(F)c12` [Compound 156, (1S,3S,5S)-2-(2-(3-Acetyl-4-fluoro-5-(2-methylpyrimidin-5-yl)-1H-indazol-1-yl)acetyl)-N-(6-bromo-3-methylpyridin-2-yl)-5-((dimethylamino)methyl)-2-azabicyclo[3.1.0]hexane-3-carboxamide] was tested, and the IC50 was > 10000 nM.
